Data on 15 compounds can be found in PubChem BioAssay (NCI).

Among the test systems are SW-620 colon; OVCAR-5 ovarian; SR leukemia; HOP-92 NSCLC; SK-MEL-2 melanoma; OVCAR-3 ovarian; 786-0 renal; OVCAR-8 ovarian; DU-145 prostate; MDA-N; T-47D breast.
Holding throughout (assay): inhibition of tumour cell growth, NCI panel, 48 h

Molecules are shown by their SMILES.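 Grown in 96-well plates, cells were treated for 48 hours with each compound at five concentrations. Insufficient inhibition: endpoint recorded as highest concentration tested. GI50 = concentration required for 50% inhibition of growth. TGI: total growth inhibition.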

Regarding `CN1N=C2c3ccccc3CC[C@H]2C1c1ccccc1` (stereo not given in full), the TGI with SW-620 colon is > 100 µM; in the test on OVCAR-5 ovarian it was > 100 µM; in the test on SR leukemia, > 100 µM; in the test with HOP-92 NSCLC, 77.9 µM; with SK-MEL-2 melanoma, > 100 µM; with OVCAR-3 ovarian, > 100 µM. The TGI with 786-0 renal and with OVCAR-8 ovarian was > 100 µM each time.

For the compound `c1ccc2nc3[nH]c4ccccc4c3cc2c1`, the TGI with OVCAR-5 ovarian turned out to be 20.4 µM; in the test on DU-145 prostate, 13.1 µM; in the test on HOP-92 NSCLC, 35.5 µM; in the test on SK-MEL-2 melanoma it was 16 µM; with MDA-N it was 2 µM; in the test on 786-0 renal, 1.16 µM. The compound also yielded a TGI in the test with OVCAR-8 ovarian of 2.35 µM.

With `COC(=O)[C@@H]1c2cc3c(c(O)c2[C@@H](OC)C[C@@]1(C)O)C(=O)c1c(O)cc2c(c1C3=O)OC1O[C@@]2(C)[C@H](O)[C@@H](N(C)C)[C@@H]1O`, the TGI in the test on SW-620 colon was 2.21 µM; with OVCAR-5 ovarian it was 2.16 µM; in the test with HOP-92 NSCLC, 0.14 µM; in the test with SK-MEL-2 melanoma, 0.727 µM; in the test with OVCAR-3 ovarian, 1.69 µM; in the test with OVCAR-8 ovarian it was 2.05 µM.

On to `C=C(C)C1Cc2c(cc(O)c3c(=O)c4ccccc4n(C)c23)O1` (stereo not given), for which the TGI in the test with SW-620 colon is > 100 µM; with OVCAR-5 ovarian, > 100 µM; in the test with SR leukemia it was > 100 µM; in the test with HOP-92 NSCLC, 54.5 µM; in the test on SK-MEL-2 melanoma, > 100 µM.

Take `CN1CCN(CC(=O)Nc2ccc3ncnc(Nc4ccc(Oc5cccc(C(F)(F)F)c5)c(Cl)c4)c3c2)CC1`: the GI50 in the test with T-47D breast is 1.66 µM; in the test with SW-620 colon it was 1.72 µM; with OVCAR-5 ovarian it was 1.58 µM; in the test with SR leukemia it was 0.371 µM; in the test with DU-145 prostate, 1.4 µM; with HOP-92 NSCLC, 1.09 µM. The results for the GI50 in the test on SK-MEL-2 melanoma and in the test on OVCAR-3 ovarian were 2.02 µM and 1.49 µM, respectively. Moreover, the TGI in the test with T-47D breast was found to be 4.1 µM; in the test with SW-620 colon, 3.25 µM; in the test with OVCAR-5 ovarian, 2.98 µM; in the test on SR leukemia, 2.2 µM; with DU-145 prostate it was 2.71 µM; in the test on HOP-92 NSCLC, 2.46 µM. The TGI came out at 4.04 µM in the test with SK-MEL-2 melanoma and 2.87 µM in the test with OVCAR-3 ovarian.

Consider `OC1C(O)C(O)C(O)C(O)C1O` (stereo not given), for which the TGI in the test with T-47D breast, in the test with SW-620 colon, in the test on OVCAR-5 ovarian, in the test on SR leukemia, in the test on DU-145 prostate and in the test on HOP-92 NSCLC was > 1000 µM in each case. Moreover, the TGI in the test on SK-MEL-2 melanoma, in the test on OVCAR-3 ovarian, in the test on 786-0 renal and in the test on OVCAR-8 ovarian was > 1000 µM each time.

For the compound `COc1ccc(CNc2nc(NCc3ccc(OC)cc3)nc(Nc3ccccc3)n2)cc1`, the TGI is > 100 µM in the test on T-47D breast; > 100 µM in the test with SW-620 colon; > 100 µM in the test on OVCAR-5 ovarian; 3.81 µM in the test with SR leukemia; > 100 µM in the test on DU-145 prostate; > 100 µM in the test on HOP-92 NSCLC. For the same compound, the TGI in the test on SK-MEL-2 melanoma is > 100 µM; in the test with OVCAR-3 ovarian it was 6.94 µM; in the test on 786-0 renal it was > 100 µM; in the test on OVCAR-8 ovarian, > 100 µM.

With `O=c1ccc2ccccc2o1`, the TGI in the test with SW-620 colon, with OVCAR-5 ovarian, in the test with HOP-92 NSCLC, with SK-MEL-2 melanoma, with OVCAR-3 ovarian and in the test with 786-0 renal was > 100 µM each time. Further, in the test on OVCAR-8 ovarian, the TGI was > 100 µM.

For the compound `C=C1CC/C=C(/C(=O)O)CC[C@H]2[C@@H]1CC2(C)C`, the TGI with T-47D breast, in the test on SW-620 colon, in the test on OVCAR-5 ovarian, with DU-145 prostate, with HOP-92 NSCLC and in the test with SK-MEL-2 melanoma was > 100 µM throughout. The TGI in the test on OVCAR-3 ovarian, with MDA-N and in the test with 786-0 renal was > 100 µM each time.

Turning to `CCCCCCCCCCCCCCCCCCNc1ccn(C2OC(COP(=O)(O)O)C(O)C2O)c(=O)n1` (stereo not given), the TGI with T-47D breast, in the test on SW-620 colon, in the test with OVCAR-5 ovarian, in the test on DU-145 prostate, in the test on HOP-92 NSCLC and in the test with SK-MEL-2 melanoma was > 100 µM throughout. The TGI with OVCAR-3 ovarian, in the test with 786-0 renal and with OVCAR-8 ovarian was > 100 µM throughout.

`[Cl-].[Rh+3].c1ccc(-c2ccnc3c2ccc2c(-c4ccccc4)ccnc23)cc1.c1ccc(-c2ccnc3c2ccc2c(-c4ccccc4)ccnc23)cc1.c1ccc(-c2ccnc3c2ccc2c(-c4ccccc4)ccnc23)cc1`: the TGI in the test on SW-620 colon was > 100 µM; in the test on OVCAR-5 ovarian it was > 100 µM; in the test with HOP-92 NSCLC, > 77.9 µM; in the test on SK-MEL-2 melanoma, > 100 µM; in the test on OVCAR-3 ovarian it was > 100 µM; in the test with OVCAR-8 ovarian, > 100 µM. For the same compound, the GI50 in the test with HOP-92 NSCLC is 19 µM.

Turning to `Nc1nc2c(ncn2CCOC(c2ccccc2)P(=O)(O)O)c(=O)[nH]1` (stereo not given), the TGI with SW-620 colon, in the test on OVCAR-5 ovarian, in the test on SR leukemia, with SK-MEL-2 melanoma, with OVCAR-3 ovarian and with 786-0 renal was > 100 µM in each case. The TGI with OVCAR-8 ovarian was > 100 µM.

As for `CN(C)CCNCc1c2ccccc2c(CNCCN(C)C)c2ccccc12`, the TGI with SW-620 colon was > 73.6 µM; with OVCAR-5 ovarian it was 43.5 µM; with HOP-92 NSCLC, 47.3 µM; with SK-MEL-2 melanoma it was 57.5 µM; in the test with OVCAR-3 ovarian, > 100 µM; in the test on OVCAR-8 ovarian, > 100 µM.

Regarding `NC(=O)c1n[nH]n(-c2ccccc2)c1=O`, the TGI in the test with T-47D breast, with SW-620 colon, in the test on OVCAR-5 ovarian, in the test on DU-145 prostate, with SK-MEL-2 melanoma and in the test with OVCAR-3 ovarian was > 100 µM in each case. In addition, the TGI with 786-0 renal and in the test with OVCAR-8 ovarian was > 100 µM throughout.

As for `Cc1ccc(C(=O)CC(Cl)=C(Cl)Cl)cc1`, the TGI in the test with T-47D breast is > 100 µM; with SW-620 colon it was > 100 µM; in the test on OVCAR-5 ovarian it was > 100 µM; with SR leukemia, 55.6 µM; in the test with DU-145 prostate, > 100 µM; with HOP-92 NSCLC it was > 100 µM. The TGI in the test on SK-MEL-2 melanoma, with OVCAR-3 ovarian, in the test with 786-0 renal and in the test on OVCAR-8 ovarian was > 100 µM each time.
